The results in this text go back to article PMC9720492 (2022).

In this experiment the test system is wHTel-26 (DNA, G4) TTAGGGTTAGGGTTAGGGTTAGGGTT
Put plainly: CD melting. The following applies: 100 mM KCl; 10 mM phosphate, 1 mM EDTA, pH 7.0; 20 µM DNA, D/N 5.0.

Turning to `CCN(CC)CCC(=O)Nc1ccc2c(c1)C(=O)c1ccc(NC(=O)CCN(CC)CC)cc1C2=O`, the Tm was 10–13 (±2) °C.
